Results as given in US20200407398A1, “Short Proline-Rich Lipopeptide Potentiates Minocycline and Rifampicin Against Multidrug-and Extensively Drug-Resistant Pseudomonas Aeruginosa” (priority 2018, published 2020).
Square brackets hold non-standard residues; d marks the D form. Peptide text beside a SMILES is read from it. * marks the point of attachment. Lauroyl = CCCCCCCCCCCC(=O)*

What was measured:
[1] = system: P. aeruginosa PAO1 (wild-type); experiment: microbe, parasite or virus in culture
Experimental: (§1) We evaluated the activity of SPRLPs in combination with fifteen clinically-used antibiotics against P. aeruginosa. Antibiotics tested included fluoroquinolones (moxifloxacin, ciprofloxacin and levofloxacin), aminoglycosides (gentamicin, tobramycin and amikacin), cephalosporins (ceftazidime and cefotaxime), carbapenems (meropenem and doripenem), aztreonam, rifampicin, minocycline, colistin and fosfomycin. The SPRLPs were screened initially at a fixed concentration of 8 μg/mL (5 μM) in combination with antibiotics against wild-type P. aeruginosa PAO1. We assessed potentiation by at least a four-fold absolute MIC reduction of the antibiotic, after which synergism was further validated by a conventional checkerboard assay. A fractional inhibitory concentration (FIC) index of ≤0.5, 0.5<x≤4 or >4 was interpreted as synergistic, indifferent or antagonistic interaction, respectively (31). FIC index was obtained by adding the FIC values of the antibiotic and the SPRLP adjuvant. FIC of antibiotics was calculated by dividing the MIC of the antibiotic in the presence of the adjuvant by the MIC of the antibiotic alone. Similarly, the FIC of adjuvant was calculated via dividing the MIC of the adjuvant in the presence of the antibiotic by the MIC of the adjuvant alone.
(§2) Microbroth dilution susceptibility test following the Clinical and Laboratory Standards Institute (CLSI) guidelines (32) was performed to assess the in vitro antibacterial activity of SPRLPs. Overnight grown bacterial cultures were diluted in saline to achieve a 0.5 McFarland turbidity, followed by 1:50 dilution in Mueller-Hinton broth (MHB) for inoculation to a final concentration of 5×10^5 colony forming units/mL. The assay was done on a 96-well plate to which the agents of interest were 2-fold serially diluted in MHB and incubated with equal volumes of inoculum at 37° C. for 18 hours. MIC was determined as the lowest concentration to inhibit visible bacterial growth in form of turbidity, which was confirmed using EMax Plus microplate reader (Molecular Devices, USA) at a wavelength of 590 nm. The well containing MHB broth with or without bacterial cells was used as positive or negative control, respectively.
(§3) The assay was performed on a 96-well plate, to which the agents of interest was 2-fold serially diluted in working MHB. Prior to serial dilution, SPRLP was added to the working MHB media so that a fixed final concentration of 8 μg/mL (5 μM) SPRLP per well was achieved. To ensure that the assay was working, the MIC determination test of the studied antibiotic (without SPRLP) was included on the same plate. Similar MIC results between the assay comparator and an independent MIC determination test (on a different plate) ensured validity of the synergy test. Overnight grown bacterial cultures were diluted in saline to 0.5 McFarland turbidity, followed by 1:50 dilution in MHB (without SPRLP) and inoculation into each well to a final concentration of approximately 5×10^5 colony forming units/mL. Wells containing only MHB (without SPRLP) with or without bacterial cells were used as positive or negative control, respectively. The plate was then incubated at 37° C. for 18 hours and examined for visible turbidity, to which was confirmed using EMax Plus microplate reader (Molecular Devices, USA) at a wavelength of 590 nm. A 4-fold or more MIC reduction of antibiotic in the presence of 8 μg/mL (5 μM) SPRLP denoted a positive synergy result and was further validated by a checkerboard assay.
The assay was done on a 96-well plate as previously described (40, 41). The agent of interest was 2-fold serially diluted along the x-axis, while the adjuvant was 2-fold serially diluted along the y-axis to create a matrix in which each well consist of a combination of both at different concentrations.

[2] = system: P. aeruginosa 100036 (MDR/XDR); experiment: microbe, parasite or virus in culture; conditions: P. aeruginosa 100036; for MIC (agent alone): antibiotic or lipopeptide alone
Experimental: as §1
(§4) Isolates used in this study were either obtained from the American Type Culture Collection (ATCC), the Canadian National Intensive Care Unit (CAN-ICU) surveillance study (27) or the Canadian Ward Surveillance (CANWARD) study (28). Clinical isolates belonging to the CAN-ICU and CANWARD studies were recovered from patients suffering a presumed infectious disease entering or admitted in a participating medical center across Canada during the time of study. MDR P. aeruginosa strains in this study refer to those that are resistant to aminoglycosides, fluoroquinolones, cephalosporins, and carbapenems while XDR strains are those that are resistant to aminoglycosides, fluoroquinolones, cephalosporins, carbapenems, aztreonam and penicillin+β-lactamase inhibitor combination (39, 40).
as §2
as §3, with “respectively.” for “respectively. The plate was then incubated at 37° C. for 18 hours and examined for visible turbidity, to which was confirmed using EMax Plus microplate reader (Molecular Devices, USA) at a wavelength of 590 nm. A 4-fold or more MIC reduction of antibiotic in the presence of 8 μg/mL (5 μM) SPRLP denoted a positive synergy result and was further validated by a checkerboard assay.”

[3] = system: P. aeruginosa 101885 (MDR/XDR); experiment: microbe, parasite or virus in culture
Experimental: as §1, §4, §2
as §3, with “respectively.” for “respectively. The plate was then incubated at 37° C. for 18 hours and examined for visible turbidity, to which was confirmed using EMax Plus microplate reader (Molecular Devices, USA) at a wavelength of 590 nm. A 4-fold or more MIC reduction of antibiotic in the presence of 8 μg/mL (5 μM) SPRLP denoted a positive synergy result and was further validated by a checkerboard assay.”

[4] = system: P. aeruginosa 260-97103 (MDR/XDR); experiment: microbe, parasite or virus in culture
Experimental: as §1, §4, §2
as §3, with “respectively.” for “respectively. The plate was then incubated at 37° C. for 18 hours and examined for visible turbidity, to which was confirmed using EMax Plus microplate reader (Molecular Devices, USA) at a wavelength of 590 nm. A 4-fold or more MIC reduction of antibiotic in the presence of 8 μg/mL (5 μM) SPRLP denoted a positive synergy result and was further validated by a checkerboard assay.”

[5] = system: P. aeruginosa 264-104354 (MDR/XDR); experiment: microbe, parasite or virus in culture; conditions: P. aeruginosa 264-104354; for MIC (agent alone): antibiotic or lipopeptide alone
Experimental: as §1, §4, §2
as §3, with “respectively.” for “respectively. The plate was then incubated at 37° C. for 18 hours and examined for visible turbidity, to which was confirmed using EMax Plus microplate reader (Molecular Devices, USA) at a wavelength of 590 nm. A 4-fold or more MIC reduction of antibiotic in the presence of 8 μg/mL (5 μM) SPRLP denoted a positive synergy result and was further validated by a checkerboard assay.”

[6] = system: wild-type and MDR/XDR P. aeruginosa clinical isolates; conditions: for interaction with minocycline (in words) / interaction with rifampicin (in words): checkerboard assay, P. aeruginosa; for MIC (lipopeptide alone): wild-type and clinical isolates of P. aeruginosa
Experimental: as §1, §4, §2
as §3, with “respectively.” for “respectively. The plate was then incubated at 37° C. for 18 hours and examined for visible turbidity, to which was confirmed using EMax Plus microplate reader (Molecular Devices, USA) at a wavelength of 590 nm. A 4-fold or more MIC reduction of antibiotic in the presence of 8 μg/mL (5 μM) SPRLP denoted a positive synergy result and was further validated by a checkerboard assay.”

[7] = P. aeruginosa PAO1, degree of minocycline potentiation in the presence of 8 μg/mL (5 μM) lipopeptide
[8] = P. aeruginosa PAO1, degree of rifampicin potentiation in the presence of 8 μg/mL (5 μM) lipopeptide
[9] = MIC of minocycline in the presence of 8 μg/mL (5 μM) lipopeptide
[10] = MIC of rifampicin in the presence of 8 μg/mL (5 μM) lipopeptide
[11] = degree of minocycline potentiation in the presence of 8 μg/mL (5 μM) lipopeptide
[12] = degree of rifampicin potentiation in the presence of 8 μg/mL (5 μM) lipopeptide
[13] = P. aeruginosa 101885, degree of minocycline potentiation in the presence of 8 μg/mL (5 μM) lipopeptide
[14] = P. aeruginosa 101885, degree of rifampicin potentiation in the presence of 8 μg/mL (5 μM) lipopeptide
[15] = P. aeruginosa 260-97103, degree of minocycline potentiation in the presence of 8 μg/mL (5 μM) lipopeptide
[16] = P. aeruginosa 260-97103, degree of rifampicin potentiation in the presence of 8 μg/mL (5 μM) lipopeptide

Structure (SMILES) | Potentiation [1, 7] | Potentiation [1, 8] | MIC (agent alone) [2] [µg/mL] | Potentiation [2, 11] | Potentiation [2, 12] | Potentiation [3, 13] | Potentiation [3, 14] | Potentiation [4, 15] | Potentiation [4, 16] | MIC (agent alone) [5] [µg/mL] | Potentiation [5, 11] | Potentiation [5, 12] | interaction with minocycline (in words) [6] | interaction with rifampicin (in words) [6] | MIC (lipopeptide alone) [6] | also measured
CCCCCCCCCCCC(=O)N1CCC[C@@H]1C(=O)N[C@H](CCCNC(=N)N)C(=O)N1CCC[C@@H]1C(=O)N[C@H](CCCNC(=N)N)C(=O)N1CCC[C@@H]1C(=O)N[C@H](CCCNC(=N)N)C(=O)N1CCC[C@@H]1C(N)=O [C12-prp] (Lauroyl-[dP][dR][dP][dR][dP][dR][dP]-NH2) | 4-fold | 8-fold | >128 | 2-fold | 4-fold | 2-fold | 4-fold | 8-fold | 4-fold | >128 | 8-fold | 4-fold | potentiated | potentiated | > 128 µg/mL | Absolute MIC MIN ([1]; P. aeruginosa PAO1, MIC of minocycline in the presence of 8 μg/mL (5 μM) lipopeptide): 2 µg/mL; Absolute MIC RMP ([1]; P. aeruginosa PAO1, MIC of rifampicin in the presence of 8 μg/mL (5 μM) lipopeptide): 1 µg/mL; MIC (agent alone) ([1]; P. aeruginosa PAO1, antibiotic or lipopeptide alone): >128 µg/mL; Absolute MIC MIN [2, 9]: 8 µg/mL; Absolute MIC RMP [2, 10]: 4 µg/mL; Absolute MIC MIN ([3]; P. aeruginosa 101885, MIC of minocycline in the presence of 8 μg/mL (5 μM) lipopeptide): 8 µg/mL; Absolute MIC RMP ([3]; P. aeruginosa 101885, MIC of rifampicin in the presence of 8 μg/mL (5 μM) lipopeptide): 4 µg/mL; MIC (agent alone) ([3]; P. aeruginosa 101885, antibiotic or lipopeptide alone): >128 µg/mL; Absolute MIC MIN ([4]; P. aeruginosa 260-97103, MIC of minocycline in the presence of 8 μg/mL (5 μM) lipopeptide): 2 µg/mL; Absolute MIC RMP ([4]; P. aeruginosa 260-97103, MIC of rifampicin in the presence of 8 μg/mL (5 μM) lipopeptide): 4 µg/mL; MIC (agent alone) ([4]; P. aeruginosa 260-97103, antibiotic or lipopeptide alone): >128 µg/mL; Absolute MIC MIN [5, 9]: 4 µg/mL; Absolute MIC RMP [5, 10]: 2 µg/mL
CCCCCCCCCCCC(=O)N1CCC[C@H]1C(=O)N[C@@H](CCCNC(=N)N)C(=O)N1CCC[C@H]1C(=O)N[C@@H](CCCNC(=N)N)C(=O)N1CCC[C@H]1C(=O)N[C@@H](CCCNC(=N)N)C(=O)N1CCC[C@H]1C(N)=O [Compound C12-PRP, CH3(CH2)10CO-PRPRPRP-NH2] (Lauroyl-PRPRPRP-NH2) | 8-fold | 8-fold | >128 | 4-fold | 16-fold | 4-fold | 8-fold | 16-fold | 8-fold | >128 | 16-fold | 16-fold | strongly synergistic | significant potentiation | inactive | MIC (agent alone) ([1]; PAO1): 128 µg/mL; MIC (agent alone) ([3]; 101885 (MDR/XDR)): 64 µg/mL; FIC index ([3]; P. aeruginosa 101885, lipopeptide in combination with minocycline (MIN)): 0.37; FIC index ([3]; P. aeruginosa 101885, lipopeptide in combination with rifampicin (RMP)): 0.25; MIC (agent alone) ([4]; 260-97103 (MDR/XDR)): 128 µg/mL; FIC index ([4]; P. aeruginosa 260-97103, lipopeptide in combination with minocycline (MIN)): 0.12; FIC index ([4]; P. aeruginosa 260-97103, lipopeptide in combination with rifampicin (RMP)): 0.16; strains in which MIC of rifampicin reached susceptibility breakpoint ([6]; 8 μg/mL (5 μM) lipopeptide, breakpoint ≤1 μg/mL (CLSI, Staphylococcus spp.)): five out of nine; strains in which MIC of minocycline was reduced below susceptibility breakpoint ([6]; 8 μg/mL (5 μM) lipopeptide, breakpoint ≤4 μg/mL (CLSI, Acinetobacter spp.)): seven out of nine
